Results from patent US20210254000A1, “PROCESS FOR PRODUCING A T CELL COMPOSITION” (Juno Therapeutics, Inc., priority 2017, published 2021).
pIC50: −log10 of the molar value. Like-named read-outs stand apart in the source and are kept apart here.

Experiments:
[1] = tested on: Ribo-S6 phosphorylation; experiment: Inhibition of ribosomal protein S6 phosphorylation in stimulated primary human T cells (flow cytometry); type: cell-based
Procedure: The dose effect of exemplary mTOR kinase inhibitors in primary human T cells was assessed by monitoring inhibition of ribosomal protein S6.
CD4+ and CD8+ T cells were isolated by immunoaffinity-based enrichment from leukapheresis samples from human donor subjects. Isolated CD4+ and CD8+ T cells were mixed 1:1 and stimulated with anti-CD3/anti-CD28 magnetic beads in the presence of increasing concentrations of an mTOR kinase inhibitor, PI-103, Compound 155, Compound 63, or Compound 246. The T cell cultures were incubated overnight (approximately 16 hr) at 37° C. Following incubation in the presence of PI-103, Compound 155, Compound 63, or Compound 246, T cells were assessed for intracellular S6 phosphorylation and co-stained for surface expression of CD4 or CD8, by flow cytometry.

[2] = tested on: engineered CD8+ and CD4+ T cells; experiment: T cell expansion of anti-CD19 CAR-transduced CD4+ and CD8+ T cells incubated with mTOR kinase inhibitor; type: cell-based
Procedure: Separate compositions of CD4+ and CD8+ cells were isolated from human leukapheresis samples by immunoaffinity-based enrichment and cryofrozen. The CD4+ and CD8+ cells of the compositions were subsequently thawed and activated by separately culturing the cells under stimulating conditions in the presence of anti-CD3/anti-CD28 magnetic beads and recombinant IL-2, IL-7 and/or IL-15 for approximately 20 hours. Cells were then transduced with a viral vector encoding an anti-CD19 chimeric antigen receptor (CAR). After transduction, the CD4+ and CD8+ cells were separately incubated in the presence of an mTOR kinase inhibitor, either Compound 155, Compound 63, or Compound 246, at various concentrations. For controls, cells were incubated with media only, DMSO vehicle, or with 200 nM PI-103. Incubation was carried out at 37° C. for approximately 8 days post-thaw with one media change, at which point the compounds were re-added to the culture media at the same concentration.
The percent of CD8+ and CD4+ T cells at the end of the process as compared to the amount of cells seeded for culture following the transduction is shown in FIG. 2. The cutoff for selecting a tolerated dose was set at 70% of the mean values of the media and DMSO controls.

[3] = Homo sapiens, T-cell, CD8+ T cells, read-out: IC50 for inhibition of Ribo-S6 phosphorylation, CD8
[4] = Homo sapiens, CD4+ T cells, read-out: IC50 for inhibition of Ribo-S6 phosphorylation, CD4
[5] = T-cell, primary human CD4+/CD8+ T cells mixed 1:1, anti-CD3/anti-CD28 beads, approximately 16 hr, read-out: IC50 for the inhibition of S6 phosphorylation in the T cells

Row | SMILES | pIC50 [1, 3] | pIC50 [1, 4] | pIC50 [1, 5] | highest tolerated dose resulting in similar CD8 and CD4 T cell expansion as vehicle control ([2]; human) [nM] | highest tolerated dose resulting in similar CD8 and CD4 T cell expansion as vehicle control ([2]; cutoff 70% of mean of media and DMSO controls, approximately 8 days post-thaw) [nM]
1 | O=c1[nH]c2ncc(-c3ccc(-c4nc[nH]n4)cc3)nc2n1CCC1CCOCC1 [Compound 155, 6-(4-(2H-1,2,4-Triazol-3-yl)phenyl)-1-(2-(tetrahydro-2H-pyran-4-yl)ethyl)-1H-imidazo [4,5-b]pyrazine-2(3H)-one] | 6.90 | 6.92 | ~7.00 | 100 | –
2 | CO[C@H]1CC[C@H](N2C(=O)CNc3ncc(-c4ccc(C(C)(C)O)nc4)nc32)CC1 [Compound 246, 7-(6-(2-hydroxypropan-2-yl)pyridin-3-yl)-1-((1r,4r)-4-methoxycyclohexyl)-3,4-dihydropyrazino[2,3-b]pyrazin-2(1H)-one] | 6.30 | 6.32 | ~6.30 | – | 100
